# Data published in PubChem BioAssay (NCI).
#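 Cells were grown in 96-well plates and exposed to each compound for 48 hours at five concentrations; endpoints were interpolated linearly between bracketing concentrations, or set to the highest concentration if not reached. Abbreviation: GI50, concentration required for 50% inhibition of growth. Definition used: TGI = concentration required for complete inhibition of growth.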
# Legend:
# Assay in all cases: inhibition of tumour cell growth, NCI panel, 48 h
# [1] = tested on: RXF 393 renal
# [2] = tested on: UACC-257 melanoma
# [3] = tested on: SNB-19 CNS
# [4] = tested on: HT29 colon
# [5] = tested on: SF-295 CNS
# [6] = tested on: SNB-75 CNS
# [7] = tested on: SK-OV-3 ovarian
# [8] = tested on: TK-10 renal
# [9] = tested on: HS 578T breast
# [10] = tested on: HCC-2998 colon
Compound,TGI [1],TGI [2],TGI [3],TGI [4],TGI [5],TGI [6],TGI [7],TGI [8],TGI [9],TGI [10],GI50 [9],GI50 [1],GI50 [2],GI50 [3],GI50 [5],GI50 [6],GI50 [10],GI50 [7],GI50 [8]
O=C(NN1C(=O)C(Cl)C1c1c(O)ccc2ccccc12)c1ccccc1O (stereo unspecified),> 100 µM,> 100 µM,> 100 µM,> 100 µM,> 100 µM,> 100 µM,> 100 µM,> 100 µM,,,,,,,,,,,
O/N=C1\CSc2ccccc2C1,> 100 µM,> 100 µM,> 100 µM,> 100 µM,> 100 µM,,> 100 µM,> 100 µM,> 100 µM,> 100 µM,,,,,,,,,
Cc1cc(C)nc(NC(=S)Nc2ccc(Cl)cc2)c1,> 100 µM,> 100 µM,> 100 µM,> 100 µM,> 100 µM,63.7 µM,> 100 µM,> 100 µM,> 100 µM,,,,,,,,,,
O=S(=O)(O)c1ccc2c(N=Nc3c(O)ccc4ccccc34)cccc2c1,> 100 µM,> 100 µM,> 100 µM,> 100 µM,> 100 µM,> 100 µM,> 100 µM,> 100 µM,> 100 µM,,,,,,,,,,
COc1ccc(/C=N/n2c(Cc3ccccc3)n[nH]c2=O)cc1,,> 100 µM,> 100 µM,> 100 µM,> 100 µM,> 100 µM,> 100 µM,,54.4 µM,> 100 µM,,,,,,,,,
CO[C@]12C[C@@H](CNC(=O)c3cc(Br)c[nH]3)O[C@H]1NC(=O)N2,,> 100 µM,> 100 µM,> 100 µM,> 100 µM,> 100 µM,> 100 µM,> 100 µM,> 100 µM,> 100 µM,,,,,,,,,
CCOc1cc(/C=C/C(=O)CC(=O)/C=C/c2ccc(OC(=O)CNCCN(CC)CC)c(OCC)c2)ccc1OC(=O)CNCCN(CC)CC,2.03 µM,3.48 µM,14.2 µM,,23.4 µM,62.4 µM,20.8 µM,6.38 µM,6.43 µM,3.19 µM,2.19 µM,0.681 µM,1.32 µM,2.86 µM,6.26 µM,6 µM,1.65 µM,5.39 µM,2.6 µM
CCOc1cc2c(cc1O)CC[C@@H]1[C@@H]2CC[C@]2(C)[C@@H](O)CC[C@@H]12,0.816 µM,,7.13 µM,17.4 µM,5.87 µM,,77.3 µM,,> 82.8 µM,5.51 µM,,,,,,,,,
O[C@]12c3ccccc3C1CCCCC2N1CCOCC1 (stereo partly specified),> 100 µM,> 100 µM,> 100 µM,> 100 µM,> 100 µM,> 100 µM,> 100 µM,> 100 µM,,,,,,,,,,,
FC(F)(F)c1cnc(N/N=C(/c2ccccc2)c2ccccn2)c(Cl)c1,32.5 µM,11.5 µM,50.9 µM,18.8 µM,11 µM,16 µM,17.9 µM,,26.9 µM,24.8 µM,,,,,,,,,
CCOP(=O)(/C=C\n1ccc(=O)[nH]c1=O)OCC,> 100 µM,> 100 µM,> 100 µM,> 100 µM,> 100 µM,> 100 µM,> 100 µM,> 100 µM,,,,,,,,,,,
C/C(CC(=O)Nc1cccc(Cl)c1C)=N\N=C(N)N,> 100 µM,> 100 µM,> 100 µM,> 100 µM,> 100 µM,> 100 µM,> 100 µM,> 100 µM,,> 100 µM,,,,,,,,,
CC1(CCCCO)C=CC(S(=O)(=O)c2ccccc2)CC1 (stereo unspecified),17 µM,10.9 µM,26.6 µM,5.91 µM,24.4 µM,13.3 µM,22.7 µM,19.1 µM,,19.6 µM,,,,,,,,,
CCCCOc1ccc(S(=O)(=O)/N=C(\N)Nc2ccc(Cl)cc2)cc1,32.3 µM,27.1 µM,33.3 µM,35.2 µM,36.1 µM,36.3 µM,35 µM,28.1 µM,40.2 µM,,,,,,,,,,
N#Cc1c(N)nc2n[nH]c(N)c2c1-c1ccccc1,13.2 µM,> 83.6 µM,> 58.8 µM,57.7 µM,29.7 µM,,20.4 µM,> 27.1 µM,24.2 µM,> 57 µM,,,,,,,,,
Nc1nc2c(c(=O)[nH]1)NC(CCNc1ccc(C(=O)O)cc1)CN2 (stereo unspecified),> 100 µM,> 100 µM,> 100 µM,> 100 µM,> 100 µM,> 100 µM,> 100 µM,> 100 µM,> 100 µM,,,,,,,,,,
O=S(=O)(/N=C(\NO)Nc1ccc(Cl)cc1)c1cc(S(=O)(=O)c2ccccc2)cs1,31 µM,39 µM,42.6 µM,47 µM,32.7 µM,,,45.4 µM,54.8 µM,27.6 µM,,,,,,,,,
CSc1nc(C)cc(=O)n1C1OC(COC(C)=O)C(OC(C)=O)C(OC(C)=O)C1OC(C)=O (stereo unspecified),,> 100 µM,> 100 µM,> 100 µM,> 100 µM,> 100 µM,> 100 µM,> 100 µM,,> 100 µM,,,,,,,,,
COc1ccc2c(C(=O)c3c(C)n(CCN4CCOCC4)c4ccccc34)cccc2c1,91.2 µM,97.9 µM,> 100 µM,64 µM,49 µM,,> 100 µM,> 100 µM,40.6 µM,,,,,,,,,,
Cc1cc(OC(=O)Nc2ccc(Cl)cc2)ccc1C(=S)Nc1ccccc1,,> 100 µM,> 100 µM,> 100 µM,> 100 µM,> 100 µM,> 100 µM,,> 100 µM,> 100 µM,,,,,,,,,
COc1ccc2nc(-c3ccc(O)cc3)ccc2c1,> 100 µM,> 100 µM,> 100 µM,> 100 µM,> 100 µM,> 100 µM,> 100 µM,> 100 µM,,> 100 µM,,,,,,,,,
CC1=C2CC(C)(C)CC(=O)C2(C)CCC1=O (stereo unspecified),,> 100 µM,> 100 µM,> 100 µM,> 100 µM,> 100 µM,> 100 µM,> 100 µM,> 100 µM,> 100 µM,,,,,,,,,
CC(C)CCCC(C)[C@H]1CCC2[C@@H]3CCC4Cc5nc6c(nc5C[C@]4(C)C3CC[C@@]21C)CC1CC[C@@H]2C(CC[C@@]3(C)C2CC[C@@H]3O)[C@@]1(C)C6 (stereo partly specified),> 100 µM,> 100 µM,> 100 µM,> 100 µM,> 100 µM,> 100 µM,> 100 µM,> 100 µM,> 100 µM,,,,,,,,,,

Compound,TGI [1],TGI [2],TGI [3],TGI [4],TGI [5],TGI [6],TGI [7],TGI [8],TGI [9],TGI [10],GI50 [9],GI50 [1],GI50 [2],GI50 [3],GI50 [5],GI50 [6],GI50 [10],GI50 [7],GI50 [8]
CCN(CC)Cc1ccc(Nc2c3ccccc3nc3ccccc23)cc1,3.96 µM,3.21 µM,3.22 µM,22.3 µM,10.9 µM,,5.56 µM,18.8 µM,21.8 µM,2.4 µM,,,,,,,,,
O=C1CC(=O)NC(=NN2C(=O)/C(=C/c3ccc(Cl)cc3)N=C2c2ccccc2)N1,30.1 µM,42 µM,,31.5 µM,33 µM,60.2 µM,51.8 µM,43.2 µM,30.6 µM,24.2 µM,,,,,,,,,
Cc1cc(OC(=O)c2c(C)cc(OC(=O)c3c(C)cc(O)cc3O)cc2O)cc(O)c1C(=O)O,> 100 µM,> 100 µM,> 100 µM,> 100 µM,> 100 µM,> 100 µM,> 100 µM,> 100 µM,,> 100 µM,,,,,,,,,
CCCCC1Cc2cc(OC)ccc2-c2n1c1cc(OC)ccc1[n+]2C (stereo unspecified) (tested in a mixture with another compound),45.8 µM,> 34.3 µM,,> 29.2 µM,> 37.3 µM,87.6 µM,54.1 µM,31.9 µM,,8.51 µM,,,,,,,,,
CC(=O)c1sc2c(c1O)c(=O)n(-c1ccccc1)c(=S)n2-c1ccccc1,> 100 µM,> 100 µM,> 100 µM,> 100 µM,> 100 µM,> 100 µM,,> 100 µM,> 100 µM,> 100 µM,,,,,,,,,
COc1cccc(-c2[nH]c3cc4c(cc3c(=O)c2C(=O)O)OCO4)c1,> 100 µM,> 100 µM,> 100 µM,> 100 µM,79.4 µM,> 100 µM,,,,74.6 µM,,,,,,,,,
O=C1c2ccccc2-n2c1nc1ccc(Cl)cc1c2=O,44.8 µM,> 100 µM,> 100 µM,> 100 µM,> 100 µM,75.5 µM,> 100 µM,> 100 µM,,> 100 µM,,,,,,,,,
Nc1ncnc2c1ncn2CCOC(c1ccccc1)P(=O)(O)O (stereo unspecified),> 100 µM,> 100 µM,> 100 µM,> 100 µM,> 100 µM,> 100 µM,> 100 µM,> 100 µM,,> 100 µM,,,,,,,,,
O=C(/C=C/c1cccs1)c1ccc([N+](=O)[O-])cc1,,> 100 µM,> 100 µM,> 100 µM,> 100 µM,> 100 µM,> 100 µM,> 100 µM,> 100 µM,> 100 µM,,,,,,,,,
COc1cc(S(=O)(=O)Nc2ccc(-c3csc(/N=C\c4cccs4)n3)cc2)ccc1Cl,,> 100 µM,> 100 µM,> 100 µM,> 100 µM,81.5 µM,> 100 µM,> 100 µM,> 100 µM,70.1 µM,,,,,,,,,
O=C([O-])C1([n+]2c(-c3ccccc3)cc(-c3ccccc3)cc2-c2ccccc2)CC1,> 100 µM,> 100 µM,> 100 µM,> 100 µM,> 100 µM,> 100 µM,,> 100 µM,> 100 µM,> 100 µM,,,,,,,,,
CCN(CC)C(=S)S,> 100 µM,65.1 µM,> 100 µM,,> 100 µM,,> 100 µM,> 100 µM,,> 100 µM,,,,,,,,,
CC(=O)Oc1ccc2cc(Oc3ccccc3)c(=O)oc2c1,> 100 µM,> 100 µM,> 100 µM,> 100 µM,> 100 µM,> 100 µM,,> 100 µM,> 100 µM,> 100 µM,,,,,,,,,
Brc1ccc(-c2nc(-c3ccc(Br)cc3)n(-c3ccccc3)n2)cc1,,> 100 µM,> 100 µM,> 100 µM,> 100 µM,> 100 µM,> 100 µM,> 100 µM,> 100 µM,,,,,,,,,,
N=C(N)c1ccc(N=Nc2c(O)ccc3cc(O)ccc23)cc1,> 100 µM,> 100 µM,> 100 µM,> 100 µM,> 100 µM,,> 100 µM,> 100 µM,> 100 µM,> 100 µM,,,,,,,,,
CSC1(Cc2ccccn2)C(=O)Nc2cccc([N+](=O)[O-])c21 (stereo unspecified),,> 100 µM,> 100 µM,> 100 µM,> 100 µM,> 100 µM,> 100 µM,> 100 µM,> 100 µM,> 100 µM,,,,,,,,,
CCOP(=O)(/C=C/n1cnc2c(=O)n(C(C)=O)c(N)nc21)OCC,> 100 µM,> 100 µM,> 100 µM,> 100 µM,> 100 µM,> 100 µM,> 100 µM,> 100 µM,> 100 µM,,,,,,,,,,
CC(=O)N1c2ccccc2[C@H]2CCc3c([nH]c4ccccc34)[C@H]21,28.4 µM,> 100 µM,> 100 µM,44.7 µM,74.4 µM,63 µM,> 100 µM,> 100 µM,57.7 µM,,,,,,,,,,
O=C1c2ccccc2/C=C\C(c2ccccc2)=N/N1c1ccccc1Cl,47.7 µM,90.5 µM,> 100 µM,37 µM,> 100 µM,97.8 µM,,> 100 µM,> 100 µM,> 100 µM,,,,,,,,,
CC(=O)OC1CC[C@@]2(C)C(=CC[C@@H]3[C@@H]2CC[C@]2(C)C(OC(C)=O)[C@H](n4ccnc4)C[C@@H]32)C1 (stereo partly specified),> 100 µM,31.1 µM,> 100 µM,23.7 µM,> 100 µM,> 100 µM,,> 100 µM,> 100 µM,,,,,,,,,,
CC(N)=O.[Cl][Pt][Cl].[NH-]c1ccn(C2OC(CO)C(O)C2O)c(=O)n1 (stereo unspecified),> 100 µM,> 100 µM,> 100 µM,> 100 µM,> 100 µM,> 100 µM,> 100 µM,> 100 µM,> 100 µM,,,,,,,,,,
Nc1c(C(=O)c2ccccc2)nnc2ccccc12,,90.8 µM,> 100 µM,> 100 µM,,,,54.7 µM,,54.4 µM,,,,,,,,,
Nc1ncc(Sc2ccccc2C(=O)O)s1,> 100 µM,> 100 µM,> 100 µM,> 100 µM,> 100 µM,> 100 µM,,> 100 µM,> 100 µM,,,,,,,,,,
